Experimental data as given in patent publication US11702394B2, “Inhibitors of phospholipid synthesis and methods of use” (The Board of Trustees of the Leland Stanford Junior …, priority 2018, dated 2023).
Entries after “also recorded” stand apart in the source; their conditions may differ.

Experiments:
[1] = tested on: mouse-derived MYC-induced RCC E28 line; test: RCC E28 proliferation / cell viability (FIG. 7, 10B, 12B); format: cell-based
Procedure: (§1) Cell Counting. A volume of cells was removed from culture medium and mixed with an equal volume of 0.4% Trypan blue stain. Then, 10 μL were taken out and placed into a hemocytometer for cell counting. Viable cell counts were used as a measure of cell proliferation.
(§2) All RCC cell lines were maintained in Dulbecco's Modified Eagle Medium (DMEM) supplemented with 10% fetal bovine serum (FBS), 1% L-glutamine, 1% sodium pyruvate, 1% nonessential amino acids, and Antibiotic-Antimycotic. All lymphoma lines were maintained in RPMI 1640 medium supplemented with 10% FBS, 50 μM β-mercaptoethanol, and […]

mouse-derived T-ALL line = test: Response in mouse-derived T-ALL line at high, low or no MYC (FIG. 6); format: cell-based; conditions: 1-100 μM; MYC levels controlled by doxycycline-off system
Procedure: as §1, §2

MYC-induced tumors = MYC-induced tumors in xenograft and primary mouse models; format: in vivo
Text: A Tet system was used to conditionally activate MYC, in the liver, kidney, lymphocyte, and lung tissue of transgenic mice. In this system, […] In the absence of tetracycline, transcription of the oncogene is activated. Oncogene expression was activated in mice by removal of doxycycline (a stable analog of tetracycline) in the mice's drinking water. All animal studies were approved by the Stanford University Administrative Panel on Laboratory Animal Care (APLAC).

[2] = tested on: mouse derived MYC-induced HCC EC4 line; test: HCC EC4 proliferation / cell viability (FIG. 8, 9, 12A); format: cell-based; conditions: for cell viability as compared to FSG67: HCC EC4, 1-100 μM dose, two days (48 hours) post treatment
Procedure: as §1

fatty acids and PGs = test: Lipid profile after TOFA or FSG67 (FIG. 11); design: species or system mouse
Procedure: DESI-MSI was used for generating two-dimensional chemical maps of 16 μm-thick tissue sections in order to assess the lipid profiles of tissue. The tissue samples were snap-frozen in liquid nitrogen and stored at −80° C. before processing. The frozen samples were cut into 16 μm sections at −21° C. using a cryomicrotome and thaw-mounted onto microscope slides. The slides were stored at −80° C. Prior to analysis, the slides were dried under a vacuum in a desiccator for approximately 20 minutes. A laboratory-built DESI-MSI source coupled to an LTQ-Orbitrap-XL mass spectrometer (Thermo Fisher Scientific) was utilized, and DESI-MSI was performed in the negative ion mode at m/z 90-1,000 with a spatial resolution of 200 μm (FIG. S1). The Orbitrap was used as the mass analyzer while set to 60,000 resolving power. Mouse tissue samples were imaged by this method using dimethylformamide and acetonitrile (1:1) as a solvent system at a flow rate of 0.5 μL/min. The N2 pressure was set to 175 psi. In DESI-MSI, charged solvents are sprayed onto the tissue, resulting in molecules, such as metabolites and lipids, to be dissolved and extracted from the tissue surface, then transferred into a mass spectrometer for measurement of the mass-to-charge (m/z) ratios. The software ImgGenerator (freeware, www.msimaging.net/) was used for converting raw files into 2D images. Spatially accurate ion images were assembled using BioMap software (freeware, www.maldi-msi.org/). After DESI-MSI, the same tissue section was subjected to a standard H&E staining for histopathologic evaluation using light microscopy. DESI-MS ion images were compared with optical microscopy images of the same-tissue H&E-stained tissue sections for delineation of tumor foci. Tandem MS analyses were performed using both the Orbitrap and the linear ion trap for mass analysis to confirm lipid identity. The LipidMaps database (www.lipidmaps.org/) was also used to assist in lipid identification.

human lymphoma lines = test: Proliferation of human lymphoma lines (FIG. 5); format: cell-based; conditions: 1-100 μM, 24 hours, various human lymphoma lines
Procedure: as §1, §2

diet-induced obese mice = conditions: cited from earlier work
[3] = molecular target: glycerol 3-phosphate acyltransferase (GPAT); conditions: inhibitor of GPAT; cited from earlier work
[4] = tested on: human MYC-induced Burkitt's Lymphoma line P493; test: BCL P493 cell viability (FIG. 10A, 12C); format: cell-based; conditions: BCL P493, 1-100 μM dose, five days post treatment
Procedure: as §1, §2

CCCCCCCCCS(=O)(=O)Nc1ccccc1C(=O)O [FSG67, 2-(Nonylsulfonamido) benzoic acid]
RCC E28 proliferation ([1]; 1-100 μM): suppresses RCC E28 proliferation
therapeutic response, high MYC vs. low or no MYC (mouse-derived T-ALL line): induces therapeutic response in high MYC (no dox) vs. low or no MYC; also recorded: induced a therapeutic response in high MYC (no dox)
MYC-induced tumorigenesis (MYC-induced tumors): MYC-induced tumorigenesis was blocked
metabolic changes (MYC-induced tumors): metabolic changes were suppressed
tumor regression (MYC-induced tumors): tumors regressed
HCC EC4 proliferation ([2]; 1-100 μM): suppresses HCC EC4 proliferation
depletion of lipids (fatty acids, PGs) (fatty acids and PGs): depletes only PGs
levels of fatty acids upstream of GPAT (oleate) (fatty acids and PGs): not perturbing levels of fatty acids that are upstream of GPAT
cell proliferation (human lymphoma lines): suppresses cell proliferation
body weight and adiposity (diet-induced obese mice): decrease body weight and adiposity
energy utilization as fatty acid oxidation (diet-induced obese mice): enhance energy utilization as fatty acid oxidation
food intake (diet-induced obese mice): reduce food intake
hepatic steatosis (diet-induced obese mice): reverse hepatic steatosis
insulin sensitivity (diet-induced obese mice): enhance insulin sensitivity
IC50 [3]: 24 µM

[2H]c1c([2H])c([2H])c(C(=O)O)c(NS(=O)(=O)CCCCCCCCC)c1[2H] [GFZ1.1]
cell viability as compared to FSG67 [2]: significant difference in cell viability

[2H]C([2H])([2H])C([2H])([2H])C([2H])([2H])C([2H])([2H])C([2H])([2H])C([2H])([2H])C([2H])([2H])C([2H])([2H])C([2H])([2H])S(=O)(=O)Nc1ccccc1C(=O)OC [GFZ1.2]
cell viability as compared to FSG67 [2]: significant difference in cell viability

CCCCCCCCCS(=O)(=O)Nc1ccccc1C(=O)OC [GFZ1.5]
cell viability as compared to FSG67 ([1]; RCC E28, 1-100 μM dose, two days (48 hours) post treatment): significant difference in cell viability
cell viability as compared to FSG67 [4]: significant difference in cell viability
cell viability as compared to FSG67 [2]: significant difference in cell viability

CCCCCCCCCCCCCCOc1ccc(C(=O)O)o1 [TOFA]
depletion of lipids (fatty acids, PGs) (fatty acids and PGs): depletes all fatty acids
